According to the NIST ThermoML archive (doi:10.1016/j.fluid.2014.01.044):
± gives the expanded uncertainty stated by the source.

What was measured:
[1] = xn = mol fraction of the nth substance listed; conditions: 100.2 kPa, Liquid, Pycnometric method
[2] = 100.2 kPa, Liquid, Pycnometric method

Structure (SMILES)	mass density ([1]; 298.2 K, x1 = 2.41e-07) [kg/m3]	mass density ([1]; 303.2 K, x1 = 3.11e-07) [kg/m3]	mass density ([1]; 308.2 K, x1 = 4.32e-07) [kg/m3]	mass density ([1]; 313.2 K, x1 = 5.86e-07) [kg/m3]	mass density ([1]; 318.2 K, x1 = 6.93e-07) [kg/m3]	mass density ([2]; 298.2 K) [kg/m3]	mass density ([2]; 303.2 K) [kg/m3]	mass density ([2]; 308.2 K) [kg/m3]	mass density ([2]; 313.2 K) [kg/m3]	mass density ([2]; 318.2 K) [kg/m3]
CCCCCCCCCC(=O)OCCN1CCN(CCCN2c3ccccc3Sc3ccc(C(F)(F)F)cc32)CC1 + O	1000 ± 5	996 ± 6	993 ± 13	991 ± 2	989 ± 2					
O [water]						1000 ± 2	996 ± 2	993 ± 2	991 ± 2	989 ± 2
